As a reminder, the IC50 is the concentration needed to halve the response being measured.

The record followed here is patent US20120149694A1, “Substituted piperidines” (BAYER PHARMA AKTIENGESELLSCHAFT, priority 2009, published 2012).

The assay deals with T1, human protease activated receptor 1 (PAR-1) (Homo sapiens, UniProt P25116).
T1 construct: the cell stably expresses the endogenous human PAR-1 receptor; endogenous in cells; host or cells: HEK293-derived recombinant cell line expressing mitochondrial aequorin
T1 sequence (P25116 22-425): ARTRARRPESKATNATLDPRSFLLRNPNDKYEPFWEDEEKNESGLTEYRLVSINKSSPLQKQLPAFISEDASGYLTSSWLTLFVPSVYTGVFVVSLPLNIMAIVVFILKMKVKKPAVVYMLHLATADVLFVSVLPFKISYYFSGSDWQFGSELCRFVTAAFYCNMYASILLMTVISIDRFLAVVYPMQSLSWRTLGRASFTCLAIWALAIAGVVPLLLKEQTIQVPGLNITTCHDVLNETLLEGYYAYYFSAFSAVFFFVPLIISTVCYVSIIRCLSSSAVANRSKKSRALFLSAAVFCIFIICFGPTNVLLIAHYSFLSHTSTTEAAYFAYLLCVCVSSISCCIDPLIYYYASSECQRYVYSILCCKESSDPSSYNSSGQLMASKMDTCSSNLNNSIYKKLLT
The assay is described as follows: Cellular functional in vitro test (PAR-1 antagonism, aequorin luminescence calcium readout). The assay is classed as cell-based. Particulars: recombinant HEK293-derived aequorin cell line with endogenous PAR-1; PAR-1 agonist added at its EC50, 5 min after test substance. From the text: A recombinant cell line is used to identify antagonists of the human protease activated receptor 1 (PAR-1) and to quantify the activity of the substances described herein. The cell is originally derived from a human embryonal kidney cell (HEK293; ATCC: American Type Culture Collection, Manassas, Va. 20108, USA). The test cell line constitutively expresses a modified form of the calcium-sensitive photoprotein aequorin which, after reconstitution with the cofactor coelenterazine, emits light when the free calcium concentration in the inner mitochondrial compartment is increased (Rizzuto R, Simpson A W, Brini M, Pozzan T.; Nature 1992, 358, 325-327). Additionally, the cell stably expresses the endogenous human PAR-1 receptor and the endogenous purinergic receptor P2Y2. The resulting PAR-1 test cell responds to stimulation of the endogenous PAR-1 or P2Y2 receptor with an intracellular release of calcium ions, which can be quantified through the resulting aequorin luminescence with a suitable luminometer (Milligan G, Marshall F, Rees S, Trends in Pharmacological Sciences 1996, 17, 235-237).
For the testing of the substance specificity, the effect thereof after activation of the endogenous PAR-1 receptor is compared with the effect after activation of the endogenous purinergic P2Y2 receptor which utilizes the same intracellular signal path.
Test procedure: The cells are plated out two days (48 h) before the test in culture medium (DMEM F12, supplemented with 10% FCS, 2 mM glutamine, 20 mM HEPES, 1.4 mM pyruvate, 0.1 mg/ml gentamycin, 0.15% Na bicarbonate; BioWhittaker Cat.# BE04-687Q; B-4800 Verviers, Belgium) in 384-well microtitre plates and kept in a cell incubator (96% atmospheric humidity, 5% v/v CO2, 37° C.). On the day of the test, the culture medium is replaced by a tyrode solution (in mM: 140 sodium chloride, 5 potassium chloride, 1 magnesium chloride, 2 calcium chloride, 20 glucose, 20 HEPES), which additionally contains the cofactor coelenterazine (25 μM) and glutathione (4 mM), and the microtitre plate is then incubated for a further 3-4 hours. The test substances are then pipetted onto the microtitre plate, and 5 minutes after the transfer of the test substances into the wells of the microtitre plate the plate is transferred into the luminometer, a PAR-1 agonist concentration which corresponds to EC50 is added and the resulting light signal is immediately measured in the luminometer. To distinguish an antagonist substance action from a toxic action, the endogenous purinergic receptor is immediately subsequently activated with agonist (ATP, final concentration 10 μM) and the resulting light signal is measured.
With `CC(C)(C)C(=O)NCC1CC(c2ccc(C(F)(F)F)cc2)CN(C(=O)N2CCOCC2)C1` (racemic) [Example 1, 2,2-Dimethyl-N-({1-(morpholin-4-ylcarbonyl)-5-[4-(trifluoromethyl)phenyl]piperidin-3-yl}methyl)propaneamide], the 50% inhibitory concentration (IC50) came to 177 nM.

Take `O=C(CC1CC(c2ccc(C(F)(F)F)cc2)CN(C(=O)N2CCOCC2)C1)Nc1ccccc1` (racemic) [Example 15, 2-{1-(Morpholin-4-ylcarbonyl)-5-[4-(trifluoromethyl)phenyl]piperidin-3-yl}-N-phenylacetamide]: the IC50 amounted to 56 nM.

As for `O=C(N1CCOCC1)N1CC(CSc2cccc(F)c2)CC(c2ccc(C(F)(F)F)cc2)C1` (racemic) [Example 40, (3-{[(3-Fluorophenyl)sulphanyl]methyl}-5-[4-(trifluoromethyl)phenyl]piperidin-1-yl)(morpholin-4-yl)methanone], the IC50 is 3 nM.

As to `O=C(N1CCOCC1)N1CC(CS(=O)(=O)C2CCCC2)CC(c2ccc(C(F)(F)F)cc2)C1` (racemic) [Example 48, {3-[(Cyclopentylsulphonyl)methyl]-5-[4-(trifluoromethyl)phenyl]piperidin-1-yl}(morpholin-4-yl)methanone], the IC50 was 24 nM.

For the molecule `CS(=O)(=O)NCC1CC(c2ccc(C(F)(F)F)cc2)CN(C(=O)N2CCOCC2)C1` (single isomer, unassigned) [Example 6, N-({1-(Morpholin-4-ylcarbonyl)-5-[4-(trifluoromethyl)phenyl]piperidin-3-yl}methyl)methanesulphonamide], the half-maximal inhibitory concentration (IC50) amounted to 8 nM.
